What all share (assay type): in vitro ADME
Series [1] is described as follows: In vitro equilibrium dialysis (RED) protein binding, rat plasma. To be noted: male, Sprague-Dawley, pH 7.4. The protocol:
(§1) Cilnidipine was tested by PsychoGenics using standard methodology in 96-well RED (Rapid Equilibrium Dialysis) plates from Thermo Fisher Scientific. Male Sprague-Dawley plasma and brain were obtained from BioIVT to provide the required protein matrix. Plasma was used undiluted, and brain homogenate was diluted 3 to 1 with PBS, pH 7.4. The protein matrix was spiked with the test compound dissolved in DMSO to achieve a 10 μM solution. Three chambers were used to allow for triplicate measures with a final DMSO concentration of <1% in each. The dialysate compartments of the 96-well dialysis chamber was loaded with PBS, pH 7.4 and the sample side was loaded with equal volume of the spiked protein matrix. The dialysis plate was then sealed and incubated at 37° C. for 4 h. After the incubation, samples were taken from each compartment. The buffer side was diluted with the appropriate matrix (plasma or brain homogenate) and the protein matrix side diluted with phosphate buffer. Resultant samples were then crashed in acetonitrile, centrifuged and the supernatant mixed with an aqueous solution providing samples for UPLC-MS/MS analysis. […] This control sample served as the basis for the determination of recovery. […] Samples were analyzed by UPLC-MS/MS using […] (MRM). The UPLC conditions consisted of a binary LC pump with autosampler, an InertSustain column (C18 column, 2.1×50 mm), utilizing gradient elution. The peak areas of the test compound in the buffer and test samples were used to calculate percent binding and recovery according to the following formulas: […]
(§2) The recovery determination serves as an indicator of reliability of the calculated protein binding value.
(§3) The characterization of protein binding is defined using the following ranges:
(§4) • Low 0 to 50% • Moderate 50 to 90% • High 90 to 99% • Very High>99%
A general note: In equilibrium dialysis free small molecules cross a membrane that holds back macromolecules.

The nature of series [2]: In vitro equilibrium dialysis (RED) protein binding, rat brain homogenate. As to conditions: male, Sprague-Dawley, rat, pH 7.4. The protocol:
as §1, §2, §3, §4

In the next series the test system is rat plasma proteins. The experiment in a line: In vitro equilibrium dialysis (RED) protein binding, rat plasma. As to conditions: male, Sprague-Dawley, plasma, 4 h, 10 μM, pH 7.4. On the procedure: as §1, §2, §3, §4
For series [3], the system named is rat brain homogenate proteins. In words: In vitro equilibrium dialysis (RED) protein binding, rat brain homogenate. To be noted: male, Sprague-Dawley, rat, brain homogenate, 4 h, 10 μM, pH 7.4. The protocol: as §1, §2, §3, §4

The source of these data is patent US20240358693A1, “METHODS OF TREATING PAIN” (Aisa Pharma, Inc., priority 2023, published 2024).

`C=C[C@H]1C[N@@]2CC[C@H]1C[C@@H]2[C@@H](O)c1ccnc2ccc(OC)cc12` [quinidine]: the recovery at 4 h, 10 μM in series [1] was found to be 93.7 ± 3.89%; in series [2], 125 ± 1.54%.

The term fraction unbound denotes the share of the substance not bound to proteins or other matrix. High values mean weak binding, low ones extensive binding. For `CC(=O)CC(c1ccccc1)c1c(O)c2ccccc2oc1=O` (centres unmarked) [warfarin], the values for the recovery at 4 h, 10 μM in series [1] and in series [2] were 112.7 ± 0.76% and 132 ± 0.57%, respectively. Besides, the fraction unbound at 4 h, 10 μM in series [1] (plasma) was 0.008; in series [2] (brain homogenate), 0.827. Besides, the “Unbound (%)” value stood at 0.8 ± 0.02% with rat plasma proteins and 82.7 ± 4.98% in series [3].
